# Source: the supplement of paper PMC13380429
# What was measured:
# Details in all cases: 72 h
# Caco-2 [1] = assay: relative viability EC50 (midpoint between 100% and the lowest measured viability); higher = less toxic
# Vero E6 [2] = assay: as above
# HepG2 [3] = assay: as above
# U2OS [4] = assay: as above
# Calu-3 [5] = assay: as above
# Caco-2 [6] = assay: cell viability relative to DMSO; higher = less toxic
# Vero E6 [7] = assay: as above
# HepG2 [8] = assay: as above
# U2OS [9] = assay: as above
# Calu-3 [10] = assay: as above
# Caco-2 [11] = assay: drug sensitivity score (DSS) for viability; higher = more toxic; extreme values may be limits of the assay
# Vero E6 [12] = assay: as above
# HepG2 [13] = assay: as above
# U2OS [14] = assay: as above
# Calu-3 [15] = assay: as above
SMILES,relative viability EC50 (Caco-2 [1]) [µM],relative viability EC50 (Vero E6 [2]) [µM],relative viability EC50 (HepG2 [3]) [µM],relative viability EC50 (U2OS [4]) [µM],relative viability EC50 (Calu-3 [5]) [µM],cell viability (Caco-2 [6]; 1 nM) [%],cell viability (Caco-2 [6]; 10 nM) [%],cell viability (Caco-2 [6]; 100 nM) [%],cell viability (Caco-2 [6]; 1000 nM) [%],cell viability (Caco-2 [6]; 10000 nM) [%],cell viability (Vero E6 [7]; 1 nM) [%],cell viability (Vero E6 [7]; 10 nM) [%],cell viability (Vero E6 [7]; 100 nM) [%],cell viability (Vero E6 [7]; 1000 nM) [%],cell viability (Vero E6 [7]; 10000 nM) [%],cell viability (HepG2 [8]; 1 nM) [%],cell viability (HepG2 [8]; 10 nM) [%],cell viability (HepG2 [8]; 100 nM) [%],cell viability (HepG2 [8]; 1000 nM) [%],cell viability (HepG2 [8]; 10000 nM) [%],cell viability (U2OS [9]; 1 nM) [%],cell viability (U2OS [9]; 10 nM) [%],cell viability (U2OS [9]; 100 nM) [%],cell viability (U2OS [9]; 1000 nM) [%],cell viability (U2OS [9]; 10000 nM) [%],cell viability (Calu-3 [10]; 1 nM) [%],cell viability (Calu-3 [10]; 10 nM) [%],cell viability (Calu-3 [10]; 100 nM) [%],cell viability (Calu-3 [10]; 1000 nM) [%],cell viability (Calu-3 [10]; 10000 nM) [%],drug sensitivity score (Caco-2 [11]),drug sensitivity score (Vero E6 [12]),drug sensitivity score (HepG2 [13]),drug sensitivity score (U2OS [14]),drug sensitivity score (Calu-3 [15])
O=C(C[S+]([O-])C(c1ccccc1)c1ccccc1)NO (stereo not given) [adrafinil],> 10,> 10,> 10,> 10,> 10,93.8,91.1,91.6,103,101,93.5,85.5,93.8,93,107,97.6,88.7,97.2,96.1,102,97.9,102,97.9,107,99.8,103,110,98.4,107,108,0,0,0,0,0
CC[C@H]1[C@@H]2C[C@H]3[C@@H]4N(C)c5ccccc5[C@]45C[C@@H]([C@@H]2[C@H]5O)N3[C@@H]1O [ajmaline],> 10,> 10,> 10,> 10,> 10,101,94,94.9,90.6,88,96.1,95,105,99.5,88.9,92,90,95,105,94.7,96,101,95.7,102,97.5,101,108,91.9,104,108,0.1,0,0,0,0
CNC(=O)c1ccc(N2C(=S)N(c3cnc(C#N)c(C(F)(F)F)c3)C(=O)C23CCC3)cc1F [apalutamide],> 10,> 10,> 10,> 10,> 10,104,107,94.1,90.6,93.5,104,107,99.3,105,98.8,99.5,107,112,109,104,98,98.6,96.7,97.7,96.9,106,103,103,102,97.1,0,0,0,0,0
C#CCOC(=O)C1=CCCN(C)C1 [arecaidine-propargyl-ester],> 10,> 10,> 10,> 10,> 10,91.4,98.4,94.4,98,103,97.4,99,95,98.4,107,95.1,95.5,101,102,102,98,93.2,99.3,102,101,100,103,95.2,100,95.6,0,0,0,0,0
NC(=O)[C@@H](CCC(F)(F)F)N(Cc1ccc(-c2ncon2)cc1F)S(=O)(=O)c1ccc(Cl)cc1 [avagacestat],> 10,> 10,> 10,> 10,> 10,103,99.9,95.9,93.2,77.1,107,110,106,109,99.2,96.6,102,94.9,105,87.9,99.1,94.9,102,93.1,96.5,96.2,105,106,95.2,105,1.4,0,0,0,0
O=C(c1cc2ccccc2o1)N1CCN(Cc2ccccc2)CC1 [befuraline],> 10,> 10,> 10,> 10,> 10,85,91,88.8,99.2,84.4,113,97.2,106,103,96.7,102,97,101,94.1,102,95.8,97.6,95.1,98,94.6,94.1,97.8,100,93.8,90.7,0,0,0,0,0
O=S(=O)(N[C@H](CO)C(C(F)(F)F)C(F)(F)F)c1ccc(Cl)s1 [begacestat],> 10,> 10,> 10,> 10,> 10,118,102,99.8,96.1,109,99.6,101,105,95.7,84.6,99.1,106,88,96.5,96.6,100,94.2,102,89.7,93.6,99.4,102,108,104,96.7,0,0.7,0,0,0
CCOC(=O)[C@H](CCc1ccccc1)N[C@H]1CCc2ccccc2N(CC(=O)O)C1=O [benazepril],> 10,> 10,> 10,> 10,> 10,99.1,90.8,106,101,94.6,103,104,96.1,109,99.2,112,101,95.4,104,96.9,99.1,94,102,93.8,93.4,94.9,97.5,111,97.8,108,0,0,0,0,0
CC(O)CC(=O)O (stereo not drawn) [beta-hydroxybutyrate],> 10,> 10,> 10,> 10,> 10,114,99.4,122,104,103,97.6,95.3,93.3,97.1,114,90.5,96.2,101,99.7,99,94.6,95.1,99.3,97.8,101,99.2,106,100,96.9,94.5,0,0,0,0,0
CCN(CC)c1ccc(C(=C2C=CC(=[N+](CC)CC)C=C2)c2ccccc2)cc1 [brilliant-green],0.148,0.328,0.128,0.0933,0.235,92.4,92.5,69.4,0.4,-0.3,96.5,97.8,94.2,6.8,-0.2,109,97.7,58.8,5.2,-0.3,93.6,95.5,47.8,0.8,-0.2,94.6,101,72.4,16.2,0,21.9,17.7,22.3,24.1,18.7
O=[N+]([O-])C(Br)(CO)CO [bronopol],> 10,> 10,> 10,> 10,> 10,95.2,95.2,96.5,98.7,113,105,84.2,106,90.6,99,112,108,107,93.3,108,95.5,102,95.7,101,102,110,98.6,91.6,103,105,0,0,0,0,0
CCN(CC)CCOCCOC(=O)C1(c2ccccc2)CCCC1 [carbetapentane],> 10,> 10,> 10,> 10,> 10,97.9,94.3,94.3,105,91.1,103,93.9,108,104,97.6,104,103,97.2,97.5,94.4,99.4,102,99.5,101,95.5,90.6,93.8,104,97.6,100,0,0,0,0,0
CCCCCCCCCCCCCCCC(=O)OC[C@@H](NC(=O)C(Cl)Cl)[C@H](O)c1ccc([N+](=O)[O-])cc1 [chloramphenicol-palmitate],> 10,> 10,> 10,> 10,> 10,111,102,99,95.1,95.3,107,107,102,97.2,99.3,98.1,101,103,92.4,88.6,105,99.6,102,104,100,97.3,95.6,95.2,97,102,0,0,0.2,0,0
